Data as given in PubChem BioAssay AID248 (DTP/NCI, 2004).
Toxic doses and inconclusive results are not listed. Cut-off read from the data, not from the text of the source: active = T/C of 150% or more; inactive = T/C below 125%.

System: L1210 leukemia ip in BDF1 mice, survival T/C
Test: NCI In Vivo Anticancer Drug Screen. Data for tumor model L1210 Leukemia (intraperitoneal) in B6D2F1 (BDF1) mice
Conditions: higher = longer survival
Outline: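 Tumor cells were implanted, animals were treated, and survival was followed. The result divides the treated measurement by the vehicle-control measurement.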

[1] = endpoint: mean survival time, dose: 50.0 mg/kg/injection, schedule: Q01DX009 (ip), vehicle: saline
[2] = endpoint: mean survival time, dose: 100.0 mg/kg/injection, schedule: Q01DX009 (ip), vehicle: saline
[3] = endpoint: mean survival time, dose: 0.5 mg/kg/injection, schedule: Q01DX001 (ip), vehicle: saline
[4] = endpoint: mean survival time, dose: 100.0 mg/kg/injection, schedule: Q04DX003 (ip), vehicle: Klucel (hydroxypropylcellulose) (HPC)
[5] = endpoint: mean survival time, dose: 200.0 mg/kg/injection, schedule: Q04DX003 (ip), vehicle: Klucel (hydroxypropylcellulose) (HPC)
[6] = endpoint: mean survival time, dose: 400.0 mg/kg/injection, schedule: Q04DX003 (ip), vehicle: Klucel (hydroxypropylcellulose) (HPC)
[7] = endpoint: mean survival time, dose: 100.0 mg/kg/injection, schedule: Q01DX001 (ip), vehicle: Klucel (hydroxypropylcellulose) (HPC)
[8] = endpoint: mean survival time, dose: 200.0 mg/kg/injection, schedule: Q01DX001 (ip), vehicle: Klucel (hydroxypropylcellulose) (HPC)
[9] = endpoint: mean survival time, dose: 400.0 mg/kg/injection, schedule: Q01DX001 (ip), vehicle: Klucel (hydroxypropylcellulose) (HPC)

Measured: T/C

O=C(Nc1ccc(Cl)c(C(F)(F)F)c1)OCc1ccco1
inactive: endpoint: mean survival time, dose: 100.0 mg/kg/injection, schedule: Q01DX009 (ip), vehicle: gum acacia 93 % of control | endpoint: mean survival time, dose: 200.0 mg/kg/injection, schedule: Q01DX009 (ip), vehicle: gum acacia 100 % of control | endpoint: mean survival time, dose: 400.0 mg/kg/injection, schedule: Q01DX009 (ip), vehicle: gum acacia 92 % of control

Oc1ccc2c(c1)Cc1cc3ccccc3nc1-2
inactive: endpoint: mean survival time, dose: 50.0 mg/kg/injection, schedule: Q01DX001 (ip), vehicle: saline 98 % of control | endpoint: mean survival time, dose: 100.0 mg/kg/injection, schedule: Q01DX001 (ip), vehicle: saline 95 % of control | endpoint: mean survival time, dose: 200.0 mg/kg/injection, schedule: Q01DX001 (ip), vehicle: saline 97 % of control | endpoint: mean survival time, dose: 400.0 mg/kg/injection, schedule: Q01DX001 (ip), vehicle: saline 93 % of control

CCCCCCN(CCCCCC)CCC(=O)c1ccc2cc(Br)c3ccccc3c2c1
inactive: endpoint: mean survival time, dose: 13.3 mg/kg/injection, schedule: Q01DX Z (ip), vehicle: methylcellulose (MC) 92 % of control | endpoint: mean survival time, dose: 20.0 mg/kg/injection, schedule: Q01DX Z (ip), vehicle: methylcellulose (MC) 86 % of control | endpoint: mean survival time, dose: 30.0 mg/kg/injection, schedule: Q01DX Z (ip), vehicle: methylcellulose (MC) 92 % of control

CCOc1ccc(Br)cc1/C=N\N=C\c1cc(Br)ccc1OCC
inactive: endpoint: mean survival time, dose: 25.0 mg/kg/injection, schedule: Q01DX009 (ip), vehicle: saline 101 % of control | [1] 100 % of control | [2] 100 % of control | endpoint: mean survival time, dose: 100.0 mg/kg/injection, schedule: Q04DX003 (ip), vehicle: saline 86 % of control

CO[C@H]1C[C@H](O[C@H]2CC[C@]3(C=O)[C@H]4CC[C@]5(C)[C@@H](C6=CC(=O)OC6)CC[C@]5(O)[C@@H]4CC[C@]3(O)C2)O[C@H](C)[C@H]1O[C@@H]1O[C@H](CO)[C@@H](O)[C@H](O)[C@H]1O
inactive: endpoint: mean survival time, dose: 0.25 mg/kg/injection, schedule: Q01DX015 (ip), vehicle: carboxymethylcellulose (CMC) 88 % of control | [3] 100 % of control | endpoint: mean survival time, dose: 0.5 mg/kg/injection, schedule: Q01DX015 (ip), vehicle: carboxymethylcellulose (CMC) 113 % of control | endpoint: mean survival time, dose: 0.5 mg/kg/injection, schedule: Q04DX003 (ip), vehicle: saline 100 % of control | endpoint: mean survival time, dose: 1.0 mg/kg/injection, schedule: Q01DX015 (ip), vehicle: carboxymethylcellulose (CMC) 89 % of control | endpoint: mean survival time, dose: 1.0 mg/kg/injection, schedule: Q04DX003 (ip), vehicle: saline 103 % of control | endpoint: mean survival time, dose: 2.0 mg/kg/injection, schedule: Q01DX015 (ip), vehicle: carboxymethylcellulose (CMC) 97 % of control | endpoint: mean survival time, dose: 4.0 mg/kg/injection, schedule: Q01DX001 (ip), vehicle: saline 98 % of control | endpoint: median survival time, dose: 0.5 mg/kg/injection, schedule: Q01DX005 (ip), vehicle: water 104 % of control | endpoint: median survival time, dose: 1.0 mg/kg/injection, schedule: Q01DX005 (ip), vehicle: water 103 % of control | endpoint: median survival time, dose: 2.0 mg/kg/injection, schedule: Q01DX005 (ip), vehicle: water 106 % of control

CCOc1ccc([N+](=O)[O-])cc1C1N(Cc2ccc(OC)cc2)CCCN1Cc1ccc(OC)cc1
inactive: endpoint: mean survival time, dose: 100.0 mg/kg/injection, schedule: Q01DX001 (ip), vehicle: acetone 100 % of control | endpoint: mean survival time, dose: 200.0 mg/kg/injection, schedule: Q01DX001 (ip), vehicle: acetone 94 % of control | endpoint: mean survival time, dose: 400.0 mg/kg/injection, schedule: Q01DX001 (ip), vehicle: acetone 94 % of control

CCCCCCCCCCCCCC[Si](Cl)(Cl)Cl
inactive: endpoint: mean survival time, dose: 75.0 mg/kg/injection, schedule: Q01DX001 (ip), vehicle: saline 94 % of control | endpoint: mean survival time, dose: 150.0 mg/kg/injection, schedule: Q01DX001 (ip), vehicle: saline 92 % of control

COc1ccc2cc(OC)ccc2c1
inactive: endpoint: mean survival time, dose: 100.0 mg/kg/injection, schedule: Q01DX001 (ip), vehicle: saline sonified 98 % of control | endpoint: mean survival time, dose: 200.0 mg/kg/injection, schedule: Q01DX001 (ip), vehicle: saline sonified 96 % of control | endpoint: mean survival time, dose: 400.0 mg/kg/injection, schedule: Q01DX001 (ip), vehicle: saline sonified 96 % of control

COc1cc2c(cc1OC)C(=O)CN(S(=O)(=O)c1ccc(C)cc1)CC2
inactive: endpoint: mean survival time, dose: 50.0 mg/kg/injection, schedule: Q01DX009 (ip), vehicle: saline sonified 101 % of control | endpoint: mean survival time, dose: 100.0 mg/kg/injection, schedule: Q01DX009 (ip), vehicle: saline sonified 87 % of control | [4] 96 % of control | endpoint: mean survival time, dose: 200.0 mg/kg/injection, schedule: Q01DX009 (ip), vehicle: saline sonified 89 % of control | [5] 96 % of control | [6] 97 % of control

O=C(NC/C(Br)=C/Br)Nc1c(Cl)cccc1Cl
inactive: [7] 94 % of control | [4] 96 % of control | [8] 91 % of control | [5] 89 % of control | [9] 91 % of control | [6] 93 % of control

CN(C)c1ccc(-c2cc(NS(=O)(=O)c3ccccc3)ccc2NS(=O)(=O)c2ccccc2)cc1
inactive: [7] 96 % of control | [8] 94 % of control | [9] 96 % of control

CC(C)(C)NC(=O)C(Cl)(Cl)Cl
inactive: endpoint: mean survival time, dose: 31.25 mg/kg/injection, schedule: Q01DX009 (ip), vehicle: Klucel (hydroxypropylcellulose) (HPC) 98 % of control | endpoint: mean survival time, dose: 62.5 mg/kg/injection, schedule: Q01DX009 (ip), vehicle: Klucel (hydroxypropylcellulose) (HPC) 107 % of control | endpoint: mean survival time, dose: 125.0 mg/kg/injection, schedule: Q01DX009 (ip), vehicle: Klucel (hydroxypropylcellulose) (HPC) 109 % of control | endpoint: mean survival time, dose: 250.0 mg/kg/injection, schedule: Q01DX009 (ip), vehicle: Klucel (hydroxypropylcellulose) (HPC) 94 % of control

CC1(C)C/C(=C\c2ccccc2)C(=O)c2ccccc21
inactive: endpoint: mean survival time, dose: 100.0 mg/kg/injection, schedule: Q04DX003 (ip), vehicle: saline with Tween-80 107 % of control | endpoint: mean survival time, dose: 200.0 mg/kg/injection, schedule: Q04DX003 (ip), vehicle: saline with Tween-80 96 % of control | endpoint: mean survival time, dose: 400.0 mg/kg/injection, schedule: Q04DX003 (ip), vehicle: saline with Tween-80 96 % of control

CCOC(=O)CNc1cc(N)ncn1
inactive: [1] 105 % of control | [2] 112 % of control

CC1CN1CC1CO1 (configuration not stated)
inactive: [3] 98 % of control | endpoint: mean survival time, dose: 0.5 mg/kg/injection, schedule: Q01DX009 (ip), vehicle: acetone 97 % of control | endpoint: mean survival time, dose: 0.5 mg/kg/injection, schedule: Q04DX003 (ip), vehicle: acetone 104 % of control | endpoint: mean survival time, dose: 1.0 mg/kg/injection, schedule: Q01DX001 (ip), vehicle: saline 95 % of control | endpoint: mean survival time, dose: 1.0 mg/kg/injection, schedule: Q01DX009 (ip), vehicle: acetone 96 % of control | endpoint: mean survival time, dose: 1.0 mg/kg/injection, schedule: Q04DX003 (ip), vehicle: acetone 101 % of control | endpoint: mean survival time, dose: 2.0 mg/kg/injection, schedule: Q01DX001 (ip), vehicle: saline 98 % of control | endpoint: mean survival time, dose: 2.0 mg/kg/injection, schedule: Q01DX009 (ip), vehicle: acetone 100 % of control | endpoint: mean survival time, dose: 2.0 mg/kg/injection, schedule: Q04DX003 (ip), vehicle: acetone 104 % of control | endpoint: mean survival time, dose: 2.97 mg/kg/injection, schedule: Q01DX009 (ip), vehicle: acetone 97 % of control | endpoint: mean survival time, dose: 4.5 mg/kg/injection, schedule: Q01DX009 (ip), vehicle: acetone 97 % of control | endpoint: mean survival time, dose: 6.75 mg/kg/injection, schedule: Q01DX009 (ip), vehicle: acetone 115 % of control | endpoint: mean survival time, dose: 9.9 mg/kg/injection, schedule: Q01DX009 (ip), vehicle: acetone 102 % of control | endpoint: mean survival time, dose: 15.0 mg/kg/injection, schedule: Q01DX009 (ip), vehicle: acetone 100 % of control | endpoint: mean survival time, dose: 22.5 mg/kg/injection, schedule: Q01DX009 (ip), vehicle: acetone 94 % of control
